Patent US20240188569A1, “NEW YEAST STRAIN AND ITS USES FOR THE CONTROL OF PHYTOPATHOGENS” (AGROVENTURES LLC, priority 2021, published 2024)

System: PT22AV
Assay: Minimum inhibitory concentration of fungicides in NYDA agar
Details: resistance level of PT22AV to the fungicide

`N#Cc1c[nH]cc1-c1cccc2c1OC(F)(F)O2` [Fludioxonil] was tested, and the Resistance level was “Resistant”.
